In patent US20230125487A1, “COMPOSITION FOR TREATING OR PREVENTING INFLAMMATORY BOWEL DISEASE” (FUGENBIO CO., LTD., priority 2019, published 2023):

Legend:
IL-1α = IL-1α mRNA expression in LPS-stimulated RAW 264.7 macrophages; assay type: cell-based; settings: 0.1 μg/mL E. coli-derived LPS, 25 μM compound, FIG. 4
COX2 = COX2 mRNA expression in LPS-stimulated RAW 264.7 macrophages; assay type: cell-based; settings: 0.1 μg/mL E. coli-derived LPS, 25 μM compound, FIGS. 2a and 2b
Protocol: (§1) RAW 264.7 macrophages were treated with 0.1 μg/mL of E. coli-derived LPS and 25 μM of Compounds A1 to A6, B1 to B6, or C1 to C6, respectively. Then, the mRNA expression level of the inflammatory cytokine TNFα was observed through RT-PCR.
(§2) FIGS. 2a and 2b show the result of representing the mRNA expression level of COX2. FIGS. 3a and 3b show the result of representing the mRNA expression level of iNOS.

MCP1 = MCP1 mRNA expression in LPS-stimulated RAW 264.7 macrophages; assay type: cell-based; settings: 0.1 μg/mL E. coli-derived LPS, 25 μM compound, FIG. 6
[1] = system: free radicals and NO formation; settings: disclosed in Cheng et al., Biochemical Pharmacology, 2001, Vol. 61, 939-946; cited from earlier work
TNFα = TNFα mRNA expression in LPS-stimulated RAW 264.7 macrophages (RT-PCR); assay type: cell-based; settings: 0.1 μg/mL E. coli-derived LPS, 25 μM compound, FIGS. 1a to 1c
Protocol: as §1

nitric oxide (NO) = assay: NO level in LPS-stimulated RAW 264.7 macrophages; assay type: cell-based; settings: 0.1 μg/mL E. coli-derived LPS, 25 μM compound, FIGS. 7a and 7b
Protocol: as §1
Nitric oxide (NO), which is increased by LPS stimulation in RAW 264.7 macrophages, is one of the causes of inflammatory bowel disease along with inflammatory cytokines. Therefore, in Experimental Example 3, it was confirmed in the same manner as in Experimental Example 1 whether NO produced by LPS stimulation could be reduced by the compound according to the present invention.
FIGS. 7a and 7b show the results of observing NO concentration (μM).

IL-1β = IL-1β mRNA expression in LPS-stimulated RAW 264.7 macrophages; assay type: cell-based; settings: 0.1 μg/mL E. coli-derived LPS, 25 μM compound, FIG. 5
iNOS = iNOS mRNA expression in LPS-stimulated RAW 264.7 macrophages; assay type: cell-based; settings: 0.1 μg/mL E. coli-derived LPS, 25 μM compound, FIGS. 3a and 3b
Protocol: as §1, §2

## CC(C)=CCc1cc(C(=O)/C=C/c2ccc(O)c(O)c2)c(O)cc1O [Compound A1, broussochalcone A]
IL-1α
  mRNA expression level of IL-1α: suppressed
COX2
  mRNA expression level of COX2: suppressed
MCP1
  mRNA expression level of MCP1: suppressed
[1]
  excessive free radicals and NO formation: inhibits
TNFα
  increase in the mRNA expression level of TNFα induced by LPS stimulation: suppressed
Nitric oxide (NO)
  NO level increased by LPS stimulation: suppressed
IL-1β
  mRNA expression level of IL-1β: suppressed
iNOS
  mRNA expression level of iNOS: suppressed
